From US11801249B1, “Broad-spectrum antitrypanosomal compounds” (KING FAISAL UNIVERSITY, priority 2023, dated 2023)
Values after ≈ are worked out from the molar mass of the structure shown.

Assays:
Test in all cases: Antitrypanosomal assay (ATP-based luciferase viability)
Format in all cases: cell-based
[1] = test system: T. b. brucei (Tbb) GuTat3.1; details: Trypanosoma brucei, TbbGUTat3.1, mean ± SD; for IC50: 72 h, three days; for inhibition at 0.25 µg/mL: 0.25 μg/ml; for inhibition at 0.25 µg/mL / inhibition at 25 µg/mL: read-out: Inhibition rate; for inhibition at 25 µg/mL: 25 μg/ml
From the text: (§1) Six trypanosome species namely T. b. brucei (Tbb) GuTat3.1, T. b. rhodesiense (Tbr) IL1501, T. b. gambiense (Tbg) IL1922, T. evansi (Tev) Tansui, T. equiperdum (Teq) IVM-t1 and T. congolense (Tc) IL3000 were cultivated using HMI-9 medium and used in the study. Following the procedures reported in Suganuma et al. (2014): “Establishment of ATP-based luciferase viability assay in 96-well plate for Trypanosoma congolense”, J Vet Med Sci 76, 1437-41, the trypanocidal activity of the two compounds discussed herein was assessed at 25 μg/ml or […]. […] The IC50 of the compounds against six trypanosome species was determined using serial dilution in a 96-well plate (Optical bottom plate, ThermoFisher SCIENTIFIC, MA, USA). After three days, 25 μL of CellTiter-GIo Luminescent cell viability reagent (Promega Corporation, WI, USA) was aliquoted into each well and luminosity was measured with a GloMax plate reader (Promega Corporation, WI, USA).
(§2) At first, the compounds were assayed at high and low concentrations of […], respectively (Table 3).
(§3) Given the promising initial antitrypanosomal action of the compounds, the IC50 was measured in the presence of several concentrations of the compound.

[2] = test system: T. b. gambiense (Tbg) IL1922; details: Trypanosoma brucei, mean ± SD; for IC50: 72 h, TbgIL1922, three days; for inhibition at 0.25 µg/mL: TbgIL1922, 0.25 μg/ml; for inhibition at 0.25 µg/mL / inhibition at 25 µg/mL: read-out: Inhibition rate; for inhibition at 25 µg/mL: TbgIL1922, 25 μg/ml
From the text: as §1, §2, §3

[3] = test system: T. b. rhodesiense (Tbr) IL1501; details: Trypanosoma brucei, mean ± SD; for IC50: 72 h, TbrIL1501, three days; for inhibition at 0.25 µg/mL: TbrIL1501, 0.25 μg/ml; for inhibition at 0.25 µg/mL / inhibition at 25 µg/mL: read-out: Inhibition rate; for inhibition at 25 µg/mL: TbrIL1501, 25 μg/ml
From the text: as §1, §2, §3

[4] = test system: T. congolense (Tc) IL3000; details: Trypanosoma congolense, TcIL3000, mean ± SD; for IC50: 72 h, three days; for inhibition at 0.25 µg/mL: 0.25 μg/ml; for inhibition at 0.25 µg/mL / inhibition at 25 µg/mL: read-out: Inhibition rate; for inhibition at 25 µg/mL: 25 μg/ml
From the text: as §1, §2, §3

[5] = test system: T. equiperdum (Teq) IVM-t1; details: Trypanosoma equiperdum, mean ± SD; for inhibition at 0.25 µg/mL: 0.25 μg/ml; for inhibition at 0.25 µg/mL / inhibition at 25 µg/mL: read-out: Inhibition rate; for inhibition at 25 µg/mL: 25 μg/ml; for IC50: 72 h, three days
From the text: as §1, §2, §3

[6] = test system: T. evansi (Tev) Tansui; details: Trypanosoma evansi, mean ± SD; for inhibition at 0.25 µg/mL: 0.25 μg/ml; for inhibition at 0.25 µg/mL / inhibition at 25 µg/mL: read-out: Inhibition rate; for inhibition at 25 µg/mL: 25 μg/ml; for IC50: 72 h, three days
From the text: as §1, §2, §3

IC50 [4] [µg/mL] | IC50 [5] [µg/mL] | IC50 [6] [µg/mL] | SMILES | IC50 [1] [µg/mL] | inhibition at 0.25 µg/mL [1] [%] | inhibition at 25 µg/mL [1] [%] | IC50 [2] [µg/mL] | inhibition at 0.25 µg/mL [2] [%] | inhibition at 25 µg/mL [2] [%] | IC50 [3] [µg/mL] | inhibition at 0.25 µg/mL [3] [%] | inhibition at 25 µg/mL [3] [%] | inhibition at 0.25 µg/mL [4] [%] | inhibition at 25 µg/mL [4] [%] | inhibition at 0.25 µg/mL [5] [%] | inhibition at 25 µg/mL [5] [%] | inhibition at 0.25 µg/mL [6] [%] | inhibition at 25 µg/mL [6] [%]
2.65 ± 0.47 (≈ 7.31 µM) | 10.3 ± 0.36 (≈ 28.4 µM) | 13.3 ± 3.36 (≈ 36.8 µM) | Fc1ccc(-c2cn[nH]c2C2CCCN(c3ncnc4[nH]ccc34)C2)cc1 (stereo not drawn) [Compound 1, 4-{3-[4-(4-fluorophenyl)-1H-pyrazol-5-yl]piperidin-1-yl}-7H-pyrrolo[2,3-d]pyrimidine] | 3.53 ± 0.67 (≈ 9.74 µM) | 13.2 ± 4.07 | 99.38 ± 0.02 | 3.51 ± 0.9 (≈ 9.69 µM) | 2.82 ± 3.98 | 99.01 ± 0.01 | 5.56 ± 0.13 (≈ 15.3 µM) | 15.9 ± 11.1 | 99.34 ± 0.01 | 8.85 ± 9.99 | 98.64 ± 0.16 | 4.26 ± 6.01 | 99.22 ± 0.01 | 9.14 ± 6.02 | 99.1 ± 0.46
2.77 ± 0.57 (≈ 7.62 µM) | 9.12 ± 0.8 (≈ 25.1 µM) | 9.26 ± 1.2 (≈ 25.5 µM) | Fc1ccc(-c2cn[nH]c2C2CCCN(c3ncnc4[nH]cnc34)C2)cc1 (stereo not drawn) [Compound 2, 6-{3-[4-(4-fluorophenyl)-1H-pyrazol-5-yl]piperidin-1-yl}-9H-purine] | 3.66 ± 0.77 (≈ 10.1 µM) | 13.9 ± 3.11 | 99.03 ± 0.02 | 3.11 ± 0.88 (≈ 8.56 µM) | 1.82 ± 1.45 | 98.21 ± 0.02 | 4.65 ± 0.25 (≈ 12.8 µM) | 11.3 ± 6.63 | 98.64 ± 0.02 | 8.09 ± 6.96 | 98.01 ± 0.2 | 5.2 ± 4.11 | 98.62 ± 0.05 | 6.14 ± 7.12 | 98.7 ± 0.04
